Experimental data reported in patent US9556417B2, “Reprogramming of cells to a new fate” (The Scripps Research Institute, priority 2010, dated 2017).

Assays:
R1 ES cells [1] = test: Serum-free monolayer cardiac differentiation of ES cells, beating colonies; type: cell-based, mouse; details: for cardiac differentiation / percentage of beating colonies: early treatment window; for number of beating colonies: treatment days 5 through 7
Experimental: Having identified the first serum-free monolayer condition for cardiac differentiation of ES cells, we sought to test its efficacy as a platform to discover regulators of cardiomyogenesis. A collection of approximately 200 small molecules and growth factors reported to be influential in developmental processes were assembled. R1 ES cells were grown and plated for differentiation on Matrigel in 24-well plates using the media and growth factors described above. The screening collection was then added and removed from each well at specific time points in order to account for different developmental time windows. The collection was screened at days 0-2, 2-5, and 5-7.
(§1) Cells are plated at a density of 200,000 cells/well of a 6-well plate in 2.5 ml of ESGM. 6-well plates are coated overnight at 4° C. with 1 ml of Matrigel (BD Bioscience) diluted 50× from stock concentration. 24 hours after plating, or after sufficient colony size was achieved, cells are switched into chemically defined medium (CDM) and treated with 4 uM BIO (Calbiochem) and 20 ng/ml BMP-4 (R&D). CDM contains RPMI 1640, 0.5×N2, 1×B27 (without Vitamin A), 0.5× Glutamax, 0.55 mM beta-mercaptoethanol, 1× non-essential amino acids, 1× nucleosides. At Day 2, medium is changed, and again CDM containing 4 uM BIO with 20 ng/ml BMP-4 is added to the cells. At Day 5, cells are washed once with PBS and medium is changed to CDM containing 100 ng/ml Dkk-1 (R&D). At Day 7, medium is changed, and again CDM containing 100 ng/ml Dkk-1 is added to the cells. At Day 10, cells are trypsinized (0.05% trypsin) (Approximately 5 minutes at 37° C., or until cells begin to detach) and replated onto gelatin coated 6-well plates in CDM with no additional growth factors. By this time, the cells will have formed tight colonies that will be difficult to disrupt (Supplementary FIG. 2b). […] The trypsin is used primarily to detach the cells rather than to dissociate them to a single cell suspension. It is preferable for the colonies to remain intact. The trypsin is briefly quenched with MEF media, cells are centrifuged, and resuspended in CDM for plating. Medium is refreshed as needed to remove dead cells and debris (every 1 to 2 days).

R1 ES cells [2] = test: QRT-PCR of markers in differentiating ES cells; type: cell-based, mouse; details: for expression of cardiac specific markers: treatment days 5-7, assessed at day 8; for expression of Brachyury T, Flk-1, GATA-4 and MESP1: treated day 0-2, harvested day 4.5
Experimental: To further analyze the mechanism of action of the cardiogenic effect seen with these molecules, QRT-PCR was carried out on cells treated from day 0-2 and harvested at day 4.5.
QRT-PCR was carried out to observe the induction of cardiomyogenesis at the transcript level. At day 5, when A83-01 treatment begins, the predominant state is that of a developed primitive streak type population that is yet to display robust expression of markers of cardiac precursors such as Nkx2.5, Isl-1, and c-kit.
Total RNA from each sample was prepared from 5×10^4 cells using RNeasy mini kit (Qiagen). Reverse transcription was carried out by using Reverse Transcription System (Promega) and PCR performed using PCR Super Mix (Invitrogen).

R1 mESCs = test: Serum-free monolayer cardiac differentiation of ES cells, αMHC immunostaining at day 10; type: cell-based, mouse; details: for effect on cardiac specification (αMHC staining at day 10): factor given in single treatment windows; for cells staining for αMHC: treatment in the first window, day 10
Source text: While cellular differentiation is a fluid process, its study can be simplified by defining stages of differentiation. In order to identify conditions conducive to cardiomyocyte differentiation, we employed a matrix strategy in which cells were differentiated for 10 days encompassing 4 treatment windows (followed by a period of maturation in the final procedure). The stages identified for the current study were mesendoderm, mesoderm, cardiac precursor, early cardiomyocyte, and mature cardiomyocyte. Shown in FIG. 24 is a schematic representing the transition from ES cells to cardiomyocytes, including markers for each cell type defined and the treatments used to stimulate each transition.
We began by identifying a minimal serum-free condition in which approximately 1% of cells would express αMHC (alpha-myosin heavy chain) after 10 days of culture. Combinations of medium components and plate coatings were tested in parallel, with the most permissive and consistent condition being a modified chemically defined N2/B27 medium on Matrigel coated plates (see Methods). Prior to differentiation, ES cells were maintained in a pluripotent state on MEFs and with LIF. At day −1, the cells were trypsinized and replated on Matrigel coated plates in LIF supplemented medium, allowing for better cell survival and more robust initial colony formation. In one day, a sufficient colony size is achieved allowing survival in serum-free medium (FIG. 25).
From a literature search, we identified growth factors, cytokines and small molecules reported to influence cardiac differentiation, such as activators and inhibitors of BMP, TGF-β/Nodal, Hedgehog, Wnt, and Notch pathways and tested each for their ability to induce cardiomyogenesis at each time window. For example, to test Dkk-1 in the second window, cells were in basal medium for days 0-2, treated with Dkk-1 for days 2-5, then cultured in basal medium until day 10 before immunofluorescence scoring. Positive regulators of cardiac specification at each stage were therefore identified by their ability to induce alpha-myosin heavy chain (αMHC) expression at day 10, as assessed by immunostaining.
as §1
Cells were fixed in 4% paraformaldehyde (Sigma) for 15 minutes, and stained in 0.3% Triton (Sigma) containing 5% donkey serum (Jackson ImunoResearch). Antibodies were used at dilutions of MF20 [Developmental Studies Hybridoma Bank (DSHB)] […]

[3] = test system: mouse embryonic fibroblasts (MEFs); test: Direct cardiac reprogramming of fibroblasts, contracting patch/colony counts; type: cell-based
Source text: Having successfully initiated the early cardiogenic program in MEFs, we next sought to induce robust activation of mid-stage cardiac gene expression and to ultimately generate spontaneously contracting patches of cardiac cells, a hallmark of terminal differentiation that is easily observed and quantified. To this end, we treated three-factor transduced MEFs with chemically defined media (CDM) as well as cytokines and small molecules that might enhance cardiogenesis by regulating TGFβ, bone morphogenetic protein (BMP), Hedgehog, Wnt, or Notch pathway activity. Treatments were done individually and in combination, and at different times during the reprogramming process. Despite the general unsuitability of the resulting protocol for iPSC generation, we also explored whether small-molecule inhibition of JAK-STAT (Janus kinase-signal transducer and activator of transcription), PI3K (phosphatidylinositol 3-kinase), or Wnt signalling during the early stages of the protocol might boost the effectiveness of cardiomyogenesis by preventing even a small number of iPSC intermediates from forming. Finally, we experimented with a more gradual transition between different media by lowering FBS concentration step-wise in increments of 1-4% over 3-6 days (immediately prior to switching to CDM). […] During this initial nine-day period, the small-molecule JAK inhibitor JD is continuously kept in the media at a concentration of 0.5 μM. From day nine onwards, the cells are cultured in CDM, with the cardioinductive growth factor BMP4 (Snyder, A. et al., J Cell Biochem 93, 224-32 (2004)) being added at 20 ng/ml for the first five days (FIG. 1b).
All MEFs (129S2/SvPasCrlf) were derived according to WiCell protocols (https://www.wicell.org/index.php?option=com_docman&task=doc_download&gid=687). TTFs were a kind gift of Dr. Hans Schöler. Secondary MEFs were derived as previously described (Wernig, M. et al., Nat Biotechnol 26, 916-24 (2008)). All results were initially obtained and confirmed with the Nebulette-LacZ MEFs; to ensure reproducibility and minimize inter-experimental variation, reported results almost exclusively derive from experiments utilizing secondary dox-inducible MEFs using the optimum induction period. MEFs were initially passaged on gelatin-coated (0.1% for 2 hours at 37° C.) tissue culture dishes in DMEM supplemented with 10% FBS, 2 mM Glutamax and 0.1 mM NEAA (all components from Invitrogen, Carlsbad, Calif.). Prior to viral transduction, cells were seeded onto Matrigel (BD Biosciences, Franklin Lakes, N.J.) or Geltrex (Invitrogen)-coated plates (1:40, overnight at 4° C.) at 3.5×10^4 cells per well of a six well plate (7×10^4 cells for TTFs) in the same media. […]

Molecule: C[C@H]1O[C@@H](n2cnc3c(N)ncnc32)C[C@@H]1OP(=O)(OCCSC(=O)C(C)(C)C)OCCSC(=O)C(C)(C)C [2′,5′-dd-3′-AMP-bis(t-Bu-SATE)]
- cardiac differentiation / percentage of beating colonies (R1 ES cells [1]): decrease in the percentage of beating clusters

Molecule: Cc1cccc(-c2nn(C(=S)Nc3ccccc3)cc2-c2ccnc3ccccc23)n1 [A83-01, 3-(6-Methyl-2-pyridinyl)-N-phenyl-4-(4-quinolinyl)-1H-pyrazole-1-carbothioamide]
- number of beating colonies (R1 ES cells [1]): induced a higher number of beating colonies
- expression of cardiac specific markers (R1 ES cells [2]): induced higher levels of expression

Molecule: O=C1Nc2cc(Br)ccc2/C1=C1/Nc2ccccc2/C1=N\O [BIO, 6-bromoindirubin-3′-oxime]
- effect on cardiac specification (αMHC staining at day 10) (R1 mESCs): increase the percentage of αMHC staining
- optimal dosage (R1 mESCs; first window (day 0-2)): 4 µM
- cells staining for αMHC (R1 mESCs): approximately 20%

Molecule: COC(=O)C1=C(C)NC(C)=C([N+](=O)[O-])C1c1ccccc1C(F)(F)F (centres unmarked) [BayK 8644]
- cardiac differentiation / percentage of beating colonies (R1 ES cells [1]): strong positive stimulator of cardiac differentiation
- expression of Brachyury T, Flk-1, GATA-4 and MESP1 (R1 ES cells [2]): increased

Molecule: CCCC(=O)Nc1ncnc2c1ncn2[C@@H]1O[C@@H]2COP(=O)(O)O[C@H]2[C@H]1OC(=O)CCC [dibutyryl cAMP]
- cardiac differentiation / percentage of beating colonies (R1 ES cells [1]): increased the percentage of beating colonies
- expression of Brachyury T, Flk-1, GATA-4 and MESP1 (R1 ES cells [2]): increased

B1: Dkk-1: Wnt inhibitor Dkk-1 (Dickkopf protein 1) (protein, UniProt O94907 32-266, looked up)
Dickkopf-related protein 1: TLNSVLNSNAIKNLPPPLGGAAGHPGSAVSAAPGILYPGGNKYQTIDNYQPYPCAEDEECGTDEYCASPTRGGDAGVQICLACRKRRKRCMRHAMCCPGNYCKNGICVSSDQNHFRGEIEETITESFGNDHSTLDGYSRRTTLSSKMYHTKGQEGSVCLRSSDCASGLCCARHFWSKICKPVLKEGQVCTKHRRKGSHGLEIFQRCYCGEGLSCRIQKDHHQASNSSRLHTCQRH
- colonies developing a beating phenotype (R1 ES cells [1]; BMP-4 + BIO then Dkk-1, replated on gelatin, basal medium, after 6 days of culture): ~50%
- increase in efficiency of cardiac differentiation (R1 mESCs; after BMP-4 and BIO for 5 days, treated in third or fourth window): 20%

B2: Wnt5a: Wnt-5A class, non-canonical Wnt signaling growth factor (protein, UniProt P41221 62-380, looked up)
Protein Wnt-5a: IIGAQPLCSQLAGLSQGQKKLCHLYQDHMQYIGEGAKTGIKECQYQFRHRRWNCSTVDNTSVFGRVMQIGSRETAFTYAVSAAGVVNAMSRACREGELSTCGCSRAARPKDLPRDWLWGGCGDNIDYGYRFAKEFVDARERERIHAKGSYESARILMNLHNNEAGRRTVYNLADVACKCHGVSGSCSLKTCWLQLADFRKVGDALKEKYDSAAAMRLNSRGKLVQVNSRFNSPTTQDLVYIDPSPDYCVRNESTGSLGTQGRLCNKTSEGMDGCELMCCGRGYDQFKTVQTERCHCKFHWCCYVKCKKCTEIVDQFVCK
- decrease in overall beating efficiency (R1 ES cells [1]; same stage as BayK 8644): 20%

B3: BMP4: cardioinductive growth factor, member of the TGF-β superfamily (protein, UniProt P12644 293-408, looked up)
Bone morphogenetic protein 4: SPKHHSQRARKKNKNCRRHSLYVDFSDVGWNDWIVAPPGYQAFYCHGDCPFPLADHLNSTNHAIVQTLVNSVNSSIPKACCVPTELSAISMLYLDEYDKVVLKNYQEMVVEGCGCR
- optimal concentration (R1 mESCs; first and/or second treatment windows): 20 ng/mL
- cells staining for αMHC (R1 mESCs): approximately 20%
- contracting patches per 100,000 MEFs plated (mean) ([3]; n=6, JI1 0.5 μM first nine days, BMP4 20 ng/ml five days): 149±13 patches per 100,000 MEFs plated
- increase in formation of contracting patches ([3]; three-factor transduced MEFs, BMP4 20 ng/ml for first five days in CDM): ~150 fold

B4: Activin A: a TGFβ/Activin/Nodal family member growth factor (protein, UniProt P08476 311-426, looked up)
Inhibin beta A chain: GLECDGKVNICCKKQFFVSFKDIGWNDWIIAPSGYHANYCEGECPSHIAGTSGSSLSFHSTVINHYRMRGHSPFANLKSCCVPTKLRPMSMLYYDDGQNIIKKDIQNMIVEECGCS
modifications: Inhibin beta A chain
- number of beating colonies (R1 ES cells [1]): lower number of beating colonies
- expression of cardiac specific markers (R1 ES cells [2]): opposite effect
- effect on cardiac specification (αMHC staining at day 10) (R1 mESCs): negative effects
